Assay results as given in paper PMC11045757, “Group 3 medulloblastoma transcriptional networks collapse under domain specific EP300/CBP inhibition” (Nature Communications, 2024).
Where “and” joins values, the source holds several entries; their conditions need not be identical. Equal entries are not always repeated. Where two headings read alike, the source gives them in different places.

Tests used:
[1] = test system: HDMB03 (HDMBO3) group 3 medulloblastoma cells; assay: CellTiter-Glo dose-response growth assay; assay type: cell-based; conditions: HDMBO3 G3MB cell growth; read-out: IC50 (nM) HDMBO3
Protocol: CellTiter-Glo assay was performed as per the manufacturer’s instructions, at the noted timepoint after compound treatment or plating. For Kelly, TE617T, RhJT, NCIH2122, NCIH650 and 143B, 500 cells were plated in normal growth media per well in a 384-well plate (Corning). HDMB03 and MB002 cells were plated in growth media at 500 cells/well in a 384-well plate. […] Cells were incubated for the noted timepoints prior to performing CellTiter-Glo assay as per the manufacturer’s instructions, and reading plates on an Envision 2104 microplate reader.

BRD4-BD1 (BRD4-1) = biological target: T1, BRD4-BD1 (BRD4-1) (Homo sapiens, UniProt O60885); assay: Differential scanning fluorimetry (DSF) thermal shift; assay type: binding; conditions: DSF; for ∆Tm (°C) BRD4-1: 5 μM protein, 100 μM compound, three independent experiments, average ± SD
T1 construct: BRD4-BD1 (residues 44-168); 6xHis (cleaved yes); host or cells: E. coli BL21 (DE3) RIL
Protocol: (§1) At OD600 of 0.6, the culture was cooled down to 18 °C and induced with 0.1 mM IPTG. After 18 h growth, the culture was harvested by centrifugation at 6000 × g for 25 min and stored at -80 °C. Harvested cell pellets were re-suspended in 50 mM Na/K phosphate buffer (pH 7.4) containing 100 mM NaCl, 40 mM imidazole, 0.01% w/v lysozyme and 0.01% v/v Triton X-100 at 4 °C for 1 h, subjected to sonication and the lysate was clarified by centrifugation (30,000 × g for 45 min at 4 °C). Proteins were purified by FPLC at 4 °C using columns and chromatography materials from GE Healthcare. […] Proteins were purified to homogeneity by size exclusion chromatography using Superdex 75 equilibrated with elution buffer (50 mM HEPES pH 7.5, 100 mM NaCl, 2 mM DTT). All BRDs eluted as monomeric protein and were of crystallization grade quality (>95% purity as judged by SDS-PAGE). Pool fractions were combined, concentrated to 10–12 mg/ml, and aliquots were flash-frozen in liquid N2 and stored at −80 °C.
(§2) DSF experiments were performed with an Applied Biosystem StepOnePlus real-time PCR system (Thermo Fisher Scientific) using 96-well format plates, assayed in quadruplicate. For thermal shift determination, 5 μM protein was mixed with 100 μM compound in 50 mM HEPES, pH 7.5, 150 mM NaCl, 2 mM DTT, 2% DMSO, 5X SYPRO Orange (Thermo Fisher Scientific) in 20 μL reaction volumes. Reaction mixtures were heated from 25 to 95 °C at 1 °C/min with fluorescence readings every 0.5 °C at 610 nm. The observed thermal shift (ΔTm) was recorded as the difference between the Tm of sample and DMSO reference wells.

EP300 bromodomain = biological target: T2, EP300 bromodomain (Homo sapiens, UniProt Q09472); assay: as above; assay type: binding; conditions: DSF
T2 construct: 6xHis (cleaved yes); host or cells: E. coli BL21 (DE3) RIL
T2 sequence (Q09472 1048-1161): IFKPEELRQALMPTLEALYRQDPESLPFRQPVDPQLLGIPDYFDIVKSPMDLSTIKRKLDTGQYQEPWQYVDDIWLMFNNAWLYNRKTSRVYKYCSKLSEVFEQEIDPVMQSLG
Protocol: as §1, §2

CBP bromodomain [2] = biological target: T3, CBP bromodomain (Homo sapiens, UniProt Q92793); assay: as above; assay type: binding; conditions: for ∆Tm (°C) CBP / ΔTm (°C) CBP: DSF; for ∆Tm (°C) CBP: 5 μM protein, 100 μM compound, three independent experiments, average ± SD
T3 construct: CBP (residues 1081-1197); 6xHis (cleaved yes); host or cells: E. coli BL21 (DE3) RIL
T3 sequence (Q92793 1081-1197): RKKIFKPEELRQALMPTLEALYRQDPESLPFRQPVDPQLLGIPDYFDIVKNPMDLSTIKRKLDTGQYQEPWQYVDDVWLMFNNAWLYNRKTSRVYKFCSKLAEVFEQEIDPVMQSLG
Protocol: as §1, with “After” for “At OD600 of 0.6, the culture was cooled down to 18 °C and induced with 0.1 mM IPTG. After”, “All BRDs eluted as monomeric protein and were of crystallization grade quality (>95% purity as judged by SDS-PAGE).” left out
(§3) DSF experiments were performed with an Applied Biosystem StepOnePlus real-time PCR system (Thermo Fisher Scientific) using 96-well format plates, assayed in quadruplicate. For thermal shift determination, 5 μM protein was mixed with 100 μM compound in 50 mM HEPES, pH 7.5, 150 mM NaCl, 2 mM DTT, 2% DMSO, 5X SYPRO Orange (Thermo Fisher Scientific) in 20 μL reaction volumes.

CBP bromodomain [3] = assay: as above; assay type: binding; conditions: ΔTm (CBP)/ΔTm(BRD4)
Protocol: as §1, with “After” for “At OD600 of 0.6, the culture was cooled down to 18 °C and induced with 0.1 mM IPTG. After”, “All BRDs eluted as monomeric protein and were of crystallization grade quality (>95% purity as judged by SDS-PAGE).” left out
as §3

[4] = biological target: GFP-tagged CBP bromodomain (Homo sapiens, UniProt Q92793); assay: Microscale thermophoresis (MST); assay type: binding; conditions: for Response (Dose Response Curve): MST raw response
Chain of GFP-tagged CBP bromodomain (Q92793 1085-1192 limits assumed): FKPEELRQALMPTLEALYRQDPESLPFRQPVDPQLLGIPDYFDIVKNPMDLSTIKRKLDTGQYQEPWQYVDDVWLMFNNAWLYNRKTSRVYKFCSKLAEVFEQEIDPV
Protocol: MST experiments were performed in a Monolith NT.115 Pico instrument (NanoTemper Technologies) following published procedures. […] MST traces were recorded using standard parameters: 5 s MST power off, 30 s MST power on and 5 s MST power off. Measurements were taken at -1-0 s (cold region) and 10 s (hot region) and data were analyzed using the NTAnalysis software.

In the case of COC1CCC(n2c(C3CCCC(=O)N3c3cccc(C(F)F)c3)nc3cc(-c4c(C)noc4C)ccc32)CC1 (centres unmarked) [Compound 3], the IC50 [1] is reported as 156 ± 63 nM, the “∆Tm (°C) BRD4-1” value (BRD4-BD1 (BRD4-1)) is reported as 5.6 ± 0.18 °C and the “∆Tm (°C) BRD4-1” value (BRD4-BD1 (BRD4-1); listed as iCBP-1) is reported as 5.6 °C. For the same compound, the “ΔTm (°C) BRD4-BD1” value (BRD4-BD1 (BRD4-1); Figure 3A, BRD4-BD1) was 5.6 °C, the “∆Tm (°C) EP300” value (EP300 bromodomain; 5 μM protein, 100 μM compound, three independent experiments, average ± SD) was 15.2 ± 0.43 °C and the “ΔTm (°C) EP300” value (EP300 bromodomain; Figure 3B, EP300) was 15.2 °C. For the same compound, the “∆Tm (°C) CBP” value (CBP bromodomain [2]) was 15.7 ± 0.13 °C, the “∆Tm (°C) CBP” value (CBP bromodomain [2]; listed as iCBP-1) was 15.7 °C and the “ΔTm (°C) CBP” value (CBP bromodomain [2]; Figure 3A, CBP bromodomain) was 15.7 °C. For the same compound, the “ΔTm (°C) CBP” value (CBP bromodomain [2]; Figure 3B, CBP) was 15.7 °C, the “DSF ΔTm (°C)” value (CBP bromodomain [2]; Figure 3C, DSF (values equal CBP column)) was 15.7 °C and the “Ratio CBP/BRD4 of ∆Tm” value (CBP bromodomain [3]) was 2.8. The “Response (Dose Response Curve)” value ([4]; Dose 7.6294e-11, single replicate run, listed as iCBP-1) was 853.223 and 857.66 and 855.66, the “Response (Dose Response Curve)” value ([4]; Dose 1.52588e-10, single replicate run, listed as iCBP-1) was 855.736 and 856.23 and 855.826 and the “Response (Dose Response Curve)” value ([4]; Dose 3.05176e-10, single replicate run, listed as iCBP-1) was 853.445 and 855.178 and 855.494. For the same compound, the “Response (Dose Response Curve)” value ([4]; Dose 6.10352e-10, single replicate run, listed as iCBP-1) was 856.427 and 856.757 and 853.917, the “Response (Dose Response Curve)” value ([4]; Dose 1.2207e-9, single replicate run, listed as iCBP-1) was 856.018 and 857.281 and 855.418 and the “Response (Dose Response Curve)” value ([4]; Dose 2.44141e-9, single replicate run, listed as iCBP-1) was 854.643 and 857.895 and 854.619. The “Response (Dose Response Curve)” value ([4]; Dose 4.88281e-9, single replicate run, listed as iCBP-1) was 855.403 and 855.962 and 856.044, the “Response (Dose Response Curve)” value ([4]; Dose 9.76563e-9, single replicate run, listed as iCBP-1) was 854.71 and 855.519 and 854.572 and the “Response (Dose Response Curve)” value ([4]; Dose 1.95313e-8, single replicate run, listed as iCBP-1) was 854.478 and 856.32 and 852.68. For the same compound, the “Response (Dose Response Curve)” value ([4]; Dose 3.90625e-8, single replicate run, listed as iCBP-1) was 853.805 and 853.804 and 852.557, the “Response (Dose Response Curve)” value ([4]; Dose 7.8125e-8, single replicate run, listed as iCBP-1) was 851.041 and 853.265 and 851.047 and the “Response (Dose Response Curve)” value ([4]; Dose 1.5625e-7, single replicate run, listed as iCBP-1) was 849.783 and 852.179 and 850.016. For the same compound, the “Response (Dose Response Curve)” value ([4]; Dose 3.125e-7, single replicate run, listed as iCBP-1) was 847.514 and 851.349 and 849.816, the “Response (Dose Response Curve)” value ([4]; Dose 6.25e-7, single replicate run, listed as iCBP-1) was 850.56 and 852.488 and 847.121 and the “Response (Dose Response Curve)” value ([4]; Dose 1.25e-6, single replicate run, listed as iCBP-1) was 851.062 and 851.994 and 849.472. For the same compound, the “Response (Dose Response Curve)” value ([4]; Dose 2.5e-6, single replicate run, listed as iCBP-1) was 852.183 and 853.073 and 851.642, the Kd ([4]; MST, single replicate run, target clGFP-CBPBRD, TargetConcentration 5e-8, MST-Power Medium, unit inferred, listed as iCBP-1, read-out: Kd (Fit Results, Fit Model: Kd)) was 11.6 nM and 7.49 nM and 11.5 nM and the “Bound (Fit Results)” value ([4]; fitted MST response of bound state, single replicate run, target clGFP-CBPBRD 5e-8, listed as iCBP-1) was 850.224 and 852.177 and 849.456. For the same compound, the “Unbound (Fit Results)” value ([4]; fitted MST response of unbound state, single replicate run, target clGFP-CBPBRD 5e-8, listed as iCBP-1) was 855.236 and 856.83 and 855.351 and the Kd ([4]; three independent MST experiments, average ± SD, read-out: Kd (nM) CBP) was 12.1 ± 4.9 nM.
